Assay results from the supplement of paper PMC10307832.

Columns and labels:
Test in all cases: relative viability (nuclei count vs DMSO), 5 days (fraction); higher = more cells survive
[1] = compound: C#Cc1cccc(Nc2ncnc3cc(OC)c(OCCCCCCC(=O)NO)cc23)c1 [CUDC-101] + CC(=O)c1c(C)c2cnc(Nc3ccc(N4CCNCC4)cn3)nc2n(C2CCCC2)c1=O [Palbociclib] (partner 0.5 µM)
In short: (§1)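 Lung cancer cell lines in 1536-well plates got either a single drug or a fixed anchor-drug dose together with five library-drug doses (not always all listed) in √10 steps, by pin tool, on the day after seeding. Nuclei were counted after 5 days, and relative viability is the treated-to-vehicle ratio of nuclei counts. Values are medians of duplicate plates.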

[2] = compound: C1=CC=C2C(=C1)N=C(S2)C(C#N)C3=NC(=NC=C3)NCCC4=CN=CC=C4 + CS(=O)(=O)CCNCc1ccc(-c2ccc3ncnc(Nc4ccc(OCc5cccc(F)c5)c(Cl)c4)c3c2)o1 [Lapatinib] (partner 2 µM)
In short: as §1

[3] = compound: C1=CC=C2C(=C1)N=C(S2)C(C#N)C3=NC(=NC=C3)NCCC4=CN=CC=C4 + Cc1nc(NC(=O)N2CCC[C@H]2C(N)=O)sc1-c1ccnc(C(C)(C)C(F)(F)F)c1 [Alpelisib] (partner 2 µM)
In short: as §1

[4] = compound: COc1cc2/c(=N/c3ccc(Br)cc3F)nc[nH]c2cc1OCC1CCN(C)CC1 [Vandetanib] + CCNC(=O)c1noc(-c2cc(C(C)C)c(O)cc2O)c1-c1ccc(CN2CCOCC2)cc1 [Luminespib] (partner 0.01 µM)
In short: as §1

HCC-15
relative viability ([1]; first compound 0.01 µM): 0.737 | relative viability ([1]; first compound 0.03162 µM): 0.74 | relative viability ([1]; first compound 0.1 µM): 0.793 | relative viability ([1]; first compound 0.3162 µM): 0.818 | relative viability ([1]; first compound 1 µM): 0.648 | relative viability ([2]; first compound 0.005 µM): 0.798 | relative viability ([2]; first compound 0.01581 µM): 0.84 | relative viability ([2]; first compound 0.05 µM): 0.817 | relative viability ([2]; first compound 0.1581 µM): 0.947 | relative viability ([2]; first compound 0.5 µM): 0.805 | relative viability ([3]; first compound 0.005 µM): 0.927 | relative viability ([3]; first compound 0.01581 µM): 0.833 | relative viability ([3]; first compound 0.05 µM): 0.905 | relative viability ([3]; first compound 0.1581 µM): 0.954 | relative viability ([3]; first compound 0.5 µM): 0.853 | relative viability ([4]; first compound 0.02 µM): 0.343 | relative viability ([4]; first compound 0.06325 µM): 0.293 | relative viability ([4]; first compound 0.2 µM): 0.0608 | relative viability ([4]; first compound 0.6325 µM): 0.298 | relative viability ([4]; first compound 2 µM): 0.227

HCC-44
relative viability ([1]; first compound 0.01 µM): 1.02 | relative viability ([1]; first compound 0.03162 µM): 0.943 | relative viability ([1]; first compound 0.1 µM): 0.951 | relative viability ([1]; first compound 0.3162 µM): 0.986 | relative viability ([1]; first compound 1 µM): 1.05 | relative viability ([2]; first compound 0.005 µM): 0.848 | relative viability ([2]; first compound 0.01581 µM): 1.02 | relative viability ([2]; first compound 0.05 µM): 1.01 | relative viability ([2]; first compound 0.1581 µM): 1.16 | relative viability ([2]; first compound 0.5 µM): 0.823 | relative viability ([3]; first compound 0.005 µM): 0.716 | relative viability ([3]; first compound 0.01581 µM): 0.835 | relative viability ([3]; first compound 0.05 µM): 0.737 | relative viability ([3]; first compound 0.1581 µM): 0.915 | relative viability ([3]; first compound 0.5 µM): 0.638 | relative viability ([4]; first compound 0.02 µM): 1.01 | relative viability ([4]; first compound 0.06325 µM): 0.988 | relative viability ([4]; first compound 0.2 µM): 1.13 | relative viability ([4]; first compound 0.6325 µM): 1.2 | relative viability ([4]; first compound 2 µM): 1.01

NCI-H1792
relative viability ([1]; first compound 0.01 µM): 0.675 | relative viability ([1]; first compound 0.03162 µM): 0.649 | relative viability ([1]; first compound 0.1 µM): 0.7 | relative viability ([1]; first compound 0.3162 µM): 0.675 | relative viability ([1]; first compound 1 µM): 0.647 | relative viability ([2]; first compound 0.01581 µM): 0.881 | relative viability ([2]; first compound 0.05 µM): 0.936 | relative viability ([2]; first compound 0.1581 µM): 1.52 | relative viability ([2]; first compound 0.5 µM): 0.661 | relative viability ([3]; first compound 0.01581 µM): 0.817 | relative viability ([3]; first compound 0.05 µM): 0.696 | relative viability ([3]; first compound 0.1581 µM): 0.891 | relative viability ([3]; first compound 0.5 µM): 0.517 | relative viability ([4]; first compound 0.02 µM): 0.492 | relative viability ([4]; first compound 0.06325 µM): 0.496 | relative viability ([4]; first compound 0.2 µM): 0.355 | relative viability ([4]; first compound 0.6325 µM): 0.461 | relative viability ([4]; first compound 2 µM): 0.413

NCI-H2347
relative viability ([1]; first compound 0.01 µM): 0.469 | relative viability ([1]; first compound 0.03162 µM): 0.431 | relative viability ([1]; first compound 0.1 µM): 0.429 | relative viability ([1]; first compound 0.3162 µM): 0.435 | relative viability ([1]; first compound 1 µM): 0.418 | relative viability ([2]; first compound 0.005 µM): 1.08 | relative viability ([2]; first compound 0.01581 µM): 0.909 | relative viability ([2]; first compound 0.05 µM): 0.846 | relative viability ([2]; first compound 0.1581 µM): 1.04 | relative viability ([2]; first compound 0.5 µM): 0.91 | relative viability ([3]; first compound 0.005 µM): 1.1 | relative viability ([3]; first compound 0.01581 µM): 0.992 | relative viability ([3]; first compound 0.05 µM): 0.954 | relative viability ([3]; first compound 0.1581 µM): 1.05 | relative viability ([3]; first compound 0.5 µM): 1.18 | relative viability ([4]; first compound 0.02 µM): 0.594 | relative viability ([4]; first compound 0.2 µM): 0.333 | relative viability ([4]; first compound 0.6325 µM): 0.642 | relative viability ([4]; first compound 2 µM): 0.574

SW 900
relative viability ([1]; first compound 0.01 µM): 0.508 | relative viability ([1]; first compound 0.03162 µM): 0.449 | relative viability ([1]; first compound 0.1 µM): 0.514 | relative viability ([1]; first compound 0.3162 µM): 0.5 | relative viability ([1]; first compound 1 µM): 0.362 | relative viability ([4]; first compound 0.02 µM): 0.19 | relative viability ([4]; first compound 0.06325 µM): 0.17 | relative viability ([4]; first compound 0.2 µM): 0.195 | relative viability ([4]; first compound 0.6325 µM): 0.204 | relative viability ([4]; first compound 2 µM): 0.175

RERF-LC-KJ
relative viability ([1]; first compound 0.01 µM): 1.15 | relative viability ([1]; first compound 0.03162 µM): 1.16 | relative viability ([1]; first compound 0.1 µM): 1.01 | relative viability ([1]; first compound 0.3162 µM): 0.844 | relative viability ([1]; first compound 1 µM): 0.813 | relative viability ([2]; first compound 0.005 µM): 0.982 | relative viability ([2]; first compound 0.01581 µM): 0.934 | relative viability ([2]; first compound 0.05 µM): 0.77 | relative viability ([2]; first compound 0.1581 µM): 0.883 | relative viability ([2]; first compound 0.5 µM): 0.732 | relative viability ([3]; first compound 0.005 µM): 0.915 | relative viability ([3]; first compound 0.01581 µM): 0.849 | relative viability ([3]; first compound 0.05 µM): 0.759 | relative viability ([3]; first compound 0.1581 µM): 0.899 | relative viability ([3]; first compound 0.5 µM): 0.82 | relative viability ([4]; first compound 0.02 µM): 1.1 | relative viability ([4]; first compound 0.06325 µM): 1.21 | relative viability ([4]; first compound 0.2 µM): 1.29 | relative viability ([4]; first compound 0.6325 µM): 1.14 | relative viability ([4]; first compound 2 µM): 1.12

NCI-H522
relative viability ([1]; first compound 0.01 µM): 0.96 | relative viability ([1]; first compound 0.03162 µM): 0.795 | relative viability ([1]; first compound 0.1 µM): 0.876 | relative viability ([1]; first compound 0.3162 µM): 0.985 | relative viability ([1]; first compound 1 µM): 0.741 | relative viability ([4]; first compound 0.02 µM): 1.3 | relative viability ([4]; first compound 0.06325 µM): 1.17 | relative viability ([4]; first compound 0.2 µM): 1.11 | relative viability ([4]; first compound 0.6325 µM): 1.18 | relative viability ([4]; first compound 2 µM): 0.96

NCI-H1666
relative viability ([1]; first compound 0.01 µM): 0.64 | relative viability ([1]; first compound 0.03162 µM): 0.661 | relative viability ([1]; first compound 0.1 µM): 0.661 | relative viability ([1]; first compound 0.3162 µM): 0.599 | relative viability ([1]; first compound 1 µM): 0.664 | relative viability ([2]; first compound 0.005 µM): 0.486 | relative viability ([2]; first compound 0.01581 µM): 0.636 | relative viability ([2]; first compound 0.05 µM): 0.631 | relative viability ([2]; first compound 0.1581 µM): 0.665 | relative viability ([2]; first compound 0.5 µM): 0.584 | relative viability ([3]; first compound 0.005 µM): 0.915 | relative viability ([3]; first compound 0.01581 µM): 0.971 | relative viability ([3]; first compound 0.05 µM): 0.876 | relative viability ([3]; first compound 0.1581 µM): 1.11 | relative viability ([3]; first compound 0.5 µM): 0.892 | relative viability ([4]; first compound 0.02 µM): 1.05 | relative viability ([4]; first compound 0.06325 µM): 0.981 | relative viability ([4]; first compound 0.2 µM): 0.405 | relative viability ([4]; first compound 0.6325 µM): 0.949 | relative viability ([4]; first compound 2 µM): 0.823

LC-2-ad
relative viability ([1]; first compound 0.01 µM): 0.501 | relative viability ([1]; first compound 0.03162 µM): 0.553 | relative viability ([1]; first compound 0.1 µM): 0.477 | relative viability ([1]; first compound 0.3162 µM): 0.482 | relative viability ([1]; first compound 1 µM): 0.451 | relative viability ([2]; first compound 0.005 µM): 0.648 | relative viability ([2]; first compound 0.01581 µM): 0.976 | relative viability ([2]; first compound 0.05 µM): 0.946 | relative viability ([2]; first compound 0.1581 µM): 1 | relative viability ([2]; first compound 0.5 µM): 0.634 | relative viability ([3]; first compound 0.005 µM): 0.768 | relative viability ([3]; first compound 0.01581 µM): 0.867 | relative viability ([3]; first compound 0.05 µM): 0.822 | relative viability ([3]; first compound 0.1581 µM): 0.966 | relative viability ([3]; first compound 0.5 µM): 0.734 | relative viability ([4]; first compound 0.02 µM): 0.987 | relative viability ([4]; first compound 0.06325 µM): 0.996 | relative viability ([4]; first compound 0.2 µM): 1.09 | relative viability ([4]; first compound 0.6325 µM): 1 | relative viability ([4]; first compound 2 µM): 0.616
